Results taken from patent US7235679B2, “Crystals of a vitamin D derivative and a method for the preparation thereof” (Chugai Seiyaku Kabushiki Kaisha, priority 1996, dated 2007).

Assays:
[1] = Stability test of ED-71: HPLC quantitative assay (survivability); type: physicochemical
Method: (§1) Amorphous and crystalline ED-71 compounds were tested for stability at 10, 25 and […]. To estimate the stability, HPLC quantitative assay and absorbance and purity measurements were utilized. The purity was expressed as peak area ratio in percentage in HPLC (% P.A.R.). The test was carried out by using the following procedures:
(§2) About 2 mg portions of each of the amorphous and crystalline samples are precisely weighed into transparent 10 ml test tubes each having screw cap, individually.
(§3) The test tubes are purged with argon using a vacuum desiccator and a glove box. This purging procedure is not applied to the test tubes indicated as “1 M (air)” in the tables below.
(§4) The test tubes in groups are fixed in thermostatic baths which are respectively controlled at the above temperatures and allowed to stand in the dark. After one (1 W) or two (2 W) weeks or one month (1 M), the test tubes are removed from the baths and subjected to the following assay and measurements:
5 ml of absolute ethanol is precisely added to the test tube to form a sample solution. 1 ml of the sample solution and 1 ml of an internal standard solution are both precisely added to another test tube and the resulting mixture is diluted with methylene chloride to give a whole volume of 20 ml. This diluted solution is designated solution 1. The internal standard solution is formed by dissolving 2-aminopyrimidine in methanol to a concentration of 0.6 mg/ml.
Next, both of 1 ml of another standard solution for quantitative assay which is formed by dissolving crystalline ED-71 in absolute ethanol to a concentration of 0.4 mg/ml and 1 ml of the internal standard solution are precisely added to another test tube and the resulting mixture is diluted with methylene chloride to give a whole volume of 20 ml. This diluted solution is designated solution 2.
HPLC is carried out using 20 μl of each of solutions 1 and 2. For each solution, an area ratio of the peak of ED-71 to the peak of the internal standard substance is determined from the HPLC data. The ED-71 content in the sample is determined from the ratio of the area ratio for solution 1 to that for solution 2.
Survivability (%) is determined by dividing the ED-71 content thus obtained by ED-71 content in the same sample but prior to the above treatment. • HPLC conditions used: • Column: YMC A-004SIL (4.6×300 mm) • Mobile phase: methylene chloride/methanol mixture (95/5) • Flow rate: 1 ml/min • Detection: at UV 265 nm. (3) Absorbance Measurement

[2] = Stability of ED-71 crystalline compound, overall conclusion; type: physicochemical; settings: up to 2 weeks at 25° C. and 40° C.
Method: as §1, §2, §3, §4
The values of the HPLC quantitative assay and the purity measurement are averaged over two runs.

SMILES | HPLC Quantitative Assay (% Survivability) ([1]; 10° C., 1 M (air), dark) [%] | HPLC Quantitative Assay (% Survivability) ([1]; 10° C., 1 M, argon, dark) [%] | HPLC Quantitative Assay (% Survivability) ([1]; 10° C., 2 W, argon, dark) [%] | HPLC Quantitative Assay (% Survivability) ([1]; 10° C., time 0) [%] | HPLC Quantitative Assay (% Survivability) ([1]; 25° C., 1 W, argon, dark) [%] | HPLC Quantitative Assay (% Survivability) ([1]; 25° C., 2 W, argon, dark) [%] | HPLC Quantitative Assay (% Survivability) ([1]; 25° C., time 0) [%] | HPLC Quantitative Assay (% Survivability) ([1]; 40° C., 1 W, argon, dark) [%] | HPLC Quantitative Assay (% Survivability) ([1]; 40° C., 2 W, argon, dark) [%] | HPLC Quantitative Assay (% Survivability) ([1]; 40° C., time 0) [%] | stability compared with the amorphous form [2]
C=C1/C(=C\C=C2/CCC[C@@]3(C)C2CC[C@@H]3[C@H](C)CCCC(C)(C)O)C[C@@H](O)[C@@H](OCCCO)[C@@H]1O (stereo partly drawn) [Amor., 1α,25-dihydroxy-2β-(3-hydroxypropoxy)vitamin D3] | 97.4 | 94.8 | 98.5 | 100 | 99.5 | 94.7 | 100 | 99.4 | 88.8 | 100 | –
C=C1/C(=C\C=C2/CCC[C@]3(C)[C@@H]([C@H](C)CCCC(C)(C)O)CC[C@@H]23)C[C@@H](O)[C@@H](OCCCO)[C@@H]1O [Crys., 1α,25-dihydroxy-2β-(3-hydroxypropoxy)vitamin D3] | 95.0 | 97.0 | 96.8 | 100 | 99.4 | 98.8 | 100 | 99.5 | 102.9 | 100 | higher stability
